Assays:
[1] = molecular target: T1, KtzS (Kutzneria sp. 744, UniProt A8CF73); experiment: flavin reductase activity of purified enzyme; type: biochemical
T1 sequence (A8CF73 1-174): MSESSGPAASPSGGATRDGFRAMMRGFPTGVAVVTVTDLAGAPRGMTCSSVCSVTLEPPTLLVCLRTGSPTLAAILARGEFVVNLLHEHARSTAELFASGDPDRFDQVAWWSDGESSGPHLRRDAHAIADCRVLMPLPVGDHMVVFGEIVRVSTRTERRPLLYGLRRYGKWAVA

[2] = substrate: N[C@@H](Cc1c[nH]c2c(Cl)cccc12)C(=O)O; experiment: coupled halogenation assay with flavin reductase; type: biochemical, Kutzneria sp. 744; details: FAD, NADH, excess KtzS or SsuE, chloride, O2
[3] = substrate: N[C@@H](Cc1c[nH]c2ccccc12)C(=O)O; experiment: coupled halogenation assay with flavin reductase; type: biochemical, Kutzneria sp. 744; details: FAD, NADH, excess KtzS or SsuE, chloride, O2

Molecule: Cc1cc2nc3c(=O)[nH]c(=O)nc-3n(C[C@H](O)[C@H](O)[C@H](O)COP(=O)(O)OP(=O)(O)OC[C@H]3O[C@@H](n4cnc5c(N)ncnc54)[C@H](O)[C@@H]3O)c2cc1C [FAD]
- flavin reductase activity of purified enzyme ([1]; NADH as reductant): shown to be an NADH-utilizing FAD reductase

Molecule: NC(=O)C1=CN([C@@H]2O[C@H](COP(=O)(O)OP(=O)(O)OC[C@H]3O[C@@H](n4cnc5c(N)ncnc54)[C@H](O)[C@@H]3O)[C@@H](O)[C@H]2O)C=CC1 [NADH]
- flavin reductase activity of purified enzyme ([1]; FAD as acceptor): shown to be an NADH-utilizing FAD reductase

B1: KtzR (Kutzneria sp. 744) (protein)
chain: MVIVGGGTAGWMTAAYLKTAFGDRLSITVVESSRIGTIGVGEATFSDIQHFFQFLNLREQDWMPACNATYKLGIRFENWRHVGHHFYQPFEQIRPVYGFPLTDWWLHDAPTDRFDTDCFVMPNLCEAGRSPRHLDGTLADEDFVEEGDELANRTMSEHQGKSQFPYAYHFEAALLAKFLTGYAVDRGVEHVVDDVLDVRLDQRGWIEHVVTAEHGEIHGDLFVDCTGFRGLLLNKALGVPFVSYQDTLPNDSAVALQVPLDMQRRGIVPNTTATAREAGWIWTIPLFGRVGTGYVYAKDYLSPEEAERTLREFVGPAAADVEANHIRMRIGRSQESWRNNCVAIGLSSGFVEPLESTGIFFIHHAIEQLVKHFPAADWNPKSRDMYNSAVAHVMDGIREFLVIHYRGAARADNQYWRDTKTRPLPDGLAERIECWQTQLPDTETIYPYYHGLPPYSYMCILMGGGAIRTPASAALALTDQGAAQKEFAAVRDRAAQLRDTLPSHYEYLARMRGLDV
- Km [2]: 114 µM
- Km [3]: 808 µM

— paper PMC2726796 (Journal of the American Chemical Society, 2008)
